Assay results taken from PMC4823124, “Selective targeting of BCL6 induces oncogene addiction switching to BCL2 in B-cell lymphoma” (Oncotarget, 2015).

Tests used:
[1] = tested on: OCI-Ly1 xenografts; assay: OCI-Ly1 xenograft tumor growth; assay type: in vivo; conditions: OCI-Ly1 xenografts in SCID mice, i.p. 10 days; RI-BPI 25 mg/kg/day, ABT-737 50 mg/kg/day, bortezomib 0.3 mg/kg/day, MLN4924 15 mg/kg every 12 h; p<0.05, T-test
Description: (§1) For these experiments OCI-Ly1 and OCI-Ly7 cells were injected in the right flank of SCID mice (n = 80 for each cell line) and tumor growth was allowed until reaching a volume of 75 - 100 mm^3. […] Tumor growth was measured every day during the 10-day treatment course and the area under the curve (AUC) was calculated.
(§2) Mouse xenografts: Animal procedures followed NIH protocols and were approved by the Animal Institute Committee of the Weill Cornell College or Medicine. SCID mice were subcutaneously injected on the right flank with GCB-DLBCL cell lines OCI-Ly1, OCI-Ly7 and SU-DHL6. Tumor volumes were monitored every day using electronic calipers (Fischer Scientific). When tumor reached a palpable size (around 75 to 100 mm^3) animals were randomized into 8 groups of 10 mice (or four groups of 5 mice for SU-DHL6 xenografts) and treated intraperitoneally accordingly to the schedule and doses shown in Figure 5A. In combinatorial treatments, mice were injected with RI-BPI (or vehicle) alone the first day followed by the combination the subsequent days. We used the area-under-the-curve (AUC) as the quantitative metric to represent the evolution of tumor volume over the time frame (10 – 13 days) of the experiment. The comparisons between treated and control mice were done using MANOVA followed by pair-wise comparison using the two-tailed T-test or Mann Whitney test for SU-DHL6 mice. Rat pharmacokinetic: Animal procedures followed NIH protocols and were conducted by Calvert Laboratories (study 0835RM44.001, Scott Township, PA). Briefly, male Sprague=Dawley rats (n = 3) were injected intravenously with 10 mg/kg of RI-BPI in sterile 50% water:50% saline and whole blood samples were collected through a jugular vein catheter at several time-points. Derived plasma samples were analyzed by HPLC-UV to determine RI-BPI concentration. Pharmacokinetic parameters were estimated using a non-compartmental approach consistent with the route of administration. The AUC that describe the total exposure to RI-BPI was estimated with the linear trapezoidal method and used to derive in vitro exposure doses.

[2] = tested on: OCI-Ly1 cells; assay: Cell viability of OCI-Ly1 cells transfected with siRNA and treated with ABT-737; assay type: cell-based; conditions: ABT-737 250 nM for 72 h
Description: DLBCL cells (3 × 10^6 to 5 × 10^6) were transfected with 1 micromolar siRNA for BCL6 (siBCL6-1 HSS100968 Life Technologies, siBCL6-2 SI00311129 Qiagen, siBCL6-3 SI0031143 Qiagen and siBCL6-4 SI0031150 Qiagen) or control (GFP targeting siRNA) using 96-well electroporation (SF buffer, Lonza).
Cells were grown on U-bottom 96-well plates at respective concentrations sufficient to keep untreated cells under exponential growth by the time of read-out after treatment. Cells were exposed to each drug alone and to the combination of both drugs on the same plate in 48 h experiments. In sequential experiments, compounds were added 48 h apart in 72 h experiments. Cell viability was then determined using a fluorometric assay based on the resazurin reduction activity of the cells (Cell Titer Blue, Promega) and confirmed by trypan blue dye-exclusion (Sigma). Fluorescence was determined for controls and three replicates per treatment condition using the Synergy4 microplate reader (BioTek). Standard curves were obtained for each individual cell line with the cell count and fluorescence values. The number of viable cells was obtained using the least-squares regression method of the standard curve and by doing a ratiometric quantification of viable cells normalized to the respective controls. […] A cell killing effect was calculated as the 1 — normalized viability value.

[3] = tested on: SU-DHL6; assay: Growth inhibition (GI50); assay type: cell-based; conditions: 48 h, resazurin reduction
Description: (§3) Cells were grown on U-bottom 96-well plates at respective concentrations sufficient to keep untreated cells under exponential growth by the time of read-out after treatment. Cells were exposed to each drug alone and to the combination of both drugs on the same plate in 48 h experiments. In sequential experiments, compounds were added 48 h apart in 72 h experiments. Cell viability was then determined using a fluorometric assay based on the resazurin reduction activity of the cells (Cell Titer Blue, Promega) and confirmed by trypan blue dye-exclusion (Sigma). Fluorescence was determined for controls and three replicates per treatment condition using the Synergy4 microplate reader (BioTek). Standard curves were obtained for each individual cell line with the cell count and fluorescence values. The number of viable cells was obtained using the least-squares regression method of the standard curve and by doing a ratiometric quantification of viable cells normalized to the respective controls. Experiments were conducted in triplicates. A cell killing effect was calculated as the 1 — normalized viability value.

[4] = tested on: SU-DHL4; assay: Growth inhibition (GI50); assay type: cell-based; conditions: 48 h, resazurin reduction
Description: as §3

[5] = tested on: OCI-Ly7; assay: Growth inhibition (GI50); assay type: cell-based; conditions: OCI-Ly7 (harbors a BCL2 deletion); Figure 2A, for ABT-737 also ref 14
Description: as §3

[6] = tested on: DoHH2; assay: Growth inhibition (GI50); assay type: cell-based; conditions: 48 h, resazurin reduction
Description: as §3

[7] = tested on: SC-1; assay: Growth inhibition (GI50); assay type: cell-based; conditions: 48 h, resazurin reduction
Description: as §3

[8] = tested on: BCL2 independent DLBCL cells; assay: Dose reduction index, sequential RI-BPI then BH3 mimetic; assay type: cell-based; conditions: pre-treated 48 h with RI-BPI, sequential 72 h; all but one (SU-DHL8) of the BCL2 independent DLBCL cell lines, including OCI-Ly7
Description: as §3

[9] = tested on: OCI-Ly4; assay: Cell viability, RI-BPI, ABT-737 or combination; assay type: cell-based; conditions: BCL6-independent GCB-DLBCL cell line OCI-Ly4; 48 h; quintuplicates
Description: as §3, with “Fluorescence was determined for controls and three replicates per treatment condition using the Synergy4 microplate reader (BioTek).” left out, “Experiments were conducted in triplicates.” left out
(§4) www.impactjournals.com/oncotarget/ Oncotarget, Supplementary Materials 2015
Supplementary Figure S2: Baseline features of DLBCL cells responsive and resistant to RI-BPI. A. Baseline features of
RI-BPI sensitive (S) and resistant (R) groups of DLBCL cells according to cell-of-origin (COO) classification into GCB and ABC groups,
the presence of BCL6 translocation (3q27) and BCL2 mutation (including amplification and translocation). […]

[10] = for MPV: C57BL/6 mice, i.p., schedule and doses of xenograft mice (RI-BPI 25, obatoclax 2, bortezomib 0.3 mg/kg/day, MLN4924 15 mg/kg every 12 h), vehicle 6.7
From the text: as §4
Hematological and biochemical parameters of C57BL/6 mice treated with the schedule and doses of OCI-Ly1 and OCI-Ly7

[11] = tested on: NFkB (p50, p52, p65); assay: NFkB DNA-binding activity assay (TransAM), HBL-1 cells; assay type: cell-based; conditions: HBL-1 (ABC-DLBCL) cells; drug at GI50 for 24 h; decreased almost completely
Description: The DNA-binding capacity of NFkB (p50, p52, c-Rel, Rel-B and p65) was assayed by a plate-based assay (TransAM, Active Motif, Carlsbad) following the manufacturer instructions. Briefly, 5×10^6 GCB-DLBCL cells were treated with vehicle, bortezomib or MLN4924 and 10 μg of nuclear lysates were added to the wells containing pre-adsorbed NFkB consensus or competitor (mutant) oligonucleotides. HBL-1 cells (ABC-DLBCL) were used as positive controls for the assay. After incubation and washing, primary anti-NFkB antibody was added to each well, followed by HPR-anti-rabbit secondary antibody. After HRP substrate addition, absorbance was read at 450 nm with a reference wavelength of 655 nm (Synergy4, Biotek). In this assay the absorbance is directly proportional to the quantity of DNA-bound transcription factor present in the sample. Experiments were carried out in four replicates. Results were expressed as mean absorbance values with SEM to mutant probe. P-values were obtained by two-tailed T-test.

[12] = tested on: OCI-Ly7 xenografts; assay: OCI-Ly7 xenograft tumor growth; assay type: in vivo, SCID mice; conditions: p<0.05, T-test; for tumor growth at day 10 (AUC of tumor volume) vs vehicle: OCI-Ly7 xenografts in SCID mice, i.p. 10 days, RI-BPI 25 mg/kg/day, obatoclax 2 mg/kg/day, bortezomib 0.3 mg/kg/day, MLN4924 15 mg/kg every 12 h
Description: as §1, §2

[13] = tested on: BMF; assay: BMF immunoblot; assay type: cell-based; conditions: SU-DHL6 cells
Description: (§5) Cell pellets containing 5 × 10^6 cells were washed with ice-cold phosphate buffer saline and lysed with RIPA buffer (Tris-HCl 50mM, NaCl, 150 mM, NP-40 1%, Sodium Deoxylcholate 0.25%, SDS 0.1%), and fresh protease inhibitor cocktail (Roche) was added. Protein concentration in lysates was determined by BCA assay (Pierce) and 15 μg of protein sample were loaded on polyacrylamide electrophoresis pre-cast gels (BioRad). PVDF membranes were blocked with 5% non-fat dry milk (Blotting buffer, BioRad). Experiments were conducted at least in independent triplicates. Densitometry analysis was performed using ImageJ. We used the following primary antibodies: mouse anti-BCL6 (SC-7388, Santa Cruz), rabbit anti-BCL2 (SC-7382, Santa Cruz), rabbit anti-MCL1 (SC-819, Santa Cruz), rabbit anti-BIM (2933S, Cell Signaling Technologies), rabbit anti-BLC-XL (2764S, Cell Signaling Technologies), mouse anti-GAPDH (ab8245, Abcam), rabbit anti-NOXA (Santa Cruz), mouse anti-tubulin (T9026, Sigma-Aldrich), rabbit anti-BMF (ab181148, Abcam) and rabbit anti-caspase 9 (9502, Cell Signaling Technologies).

[14] = tested on: NOXA; assay: NOXA immunoblot; assay type: cell-based; conditions: SU-DHL6 and OCI-Ly1 cells, 24 h
Description: as §5

[15] = tested on: BCL6-dependent GCB-DLBCL cell lines; assay: Dose reduction index, MLN4924 or bortezomib after RI-BPI; assay type: cell-based; conditions: 8 BCL6-dependent GCB-DLBCL cell lines pre-treated with RI-BPI; all the cell lines tested
Description: as §3

[16] = tested on: BCL6-dependent GCB-DLBCL cells; assay: Growth inhibition (GI50), panel of BCL6-dependent GCB-DLBCL cells; assay type: cell-based; conditions: 6 cell lines of the GCB-DLBCL panel; single agent
Description: as §3

[17] = tested on: NFkB (p50); assay: NFkB DNA-binding activity assay (TransAM), OCI-Ly1 cells; assay type: cell-based; conditions: drug at GI50 for 24 h, only p50 changed
[18] = tested on: OCI-Ly1 lymphoma tissues; assay: TUNEL assay of xenografted lymphoma tissues; assay type: in vivo, SCID mice; conditions: post-treatment OCI-Ly1 lymphoma tissues; Mann-Whitney p = 0.0004 (RI-BPI), 0.002 (obatoclax), 0.0008 (bortezomib)
Description: DNA fragmentation coupled to the apoptotic response was detected in morphologically identifiable nuclei and apoptotic bodies present in formalin-fixed paraffin-embedded tumors by the TUNEL assay (ApopTag, Chemicon, Temecula, California) following the manufacturer's instructions. Tissue slides were pre-treated with 0.5% trypsin for 15 minutes (Zymed, San Francisco, California), to improve the exposure of DNA.

SMILES | tumor growth at day 10 (AUC of tumor volume) vs vehicle [1] | sensitivity as single agent (GI50) [3] | sensitivity as single agent (GI50) [4] | sensitivity as single agent (GI50) [5] | sensitivity as single agent (GI50) [6] | sensitivity as single agent (GI50) [7] | sensitivity to BH3 mimetic after RI-BPI treatment (dose reduction index) [8] | MPV [10] [fL] | NFκB activation (DNA binding of p50, p52 and p65) [11] | tumor growth at day 10 (AUC of tumor volume) vs vehicle [12] | NOXA protein levels [14] | enhancement of response to RI-BPI (dose reduction index) [15] | percent of apoptotic nuclei (TUNEL) vs vehicle control [18] | other results
CN(C)CC[C@H](CSc1ccccc1)Nc1ccc(S(=O)(=O)NC(=O)c2ccc(N3CCN(Cc4ccccc4-c4ccc(Cl)cc4)CC3)cc2)cc1[N+](=O)[O-] [ABT-737] | significantly reduced | sensitive | sensitive | highly resistant | sensitive | sensitive | gained sensitivity |  |  |  |  |  |  | loss of viability ([2]; OCI-Ly1 transfected with BCL6 siRNA, BCL6 knockdown alone 68%, p < 0.03, T-test): 97%; cells killed (loss of viability) ([2]; OCI-Ly1 transfected with control siRNA): 57%; sensitization to RI-BPI by pre-treatment with ABT-737 [9]: failed to sensitize
NS(=O)(=O)OC[C@@H]1C[C@@H](n2ccc3c(N[C@H]4CCc5ccccc54)ncnc32)C[C@@H]1O [MLN4924] | significantly reduced |  |  |  |  |  |  | 6.5 | decreased | significantly reduced | significant stabilization of NOXA | favorable DRIs |  | BMF protein levels [13]: increased; GI50 [16]: > 100 nM
CC(C)C[C@H](NC(=O)[C@H](Cc1ccccc1)NC(=O)c1cnccn1)B(O)O [bortezomib] | significantly reduced |  | resistant |  |  | resistant |  | 6.6 | decreased | significantly reduced | significant stabilization of NOXA | favorable DRIs | significantly increased | toxicity by body weight follow-up, plasma hematology and biochemistry parameters ([10]; mouse, in vivo): mild monocytosis and AST increase; single-agent efficacy compared between drugs ([12]; OCI-Ly7 xenografts): more effective than obatoclax; NFκB activation (DNA binding of p50) [17]: mild decrease
COC1=CC(c2cc3ccccc3[nH]2)=N/C1=C\c1[nH]c(C)cc1C [obatoclax] |  | sensitive | sensitive | highly resistant | sensitive | sensitive | gained sensitivity | 6.4 |  | significantly reduced |  |  | significantly increased | 
